{"source": "patent US20230391778A1", "about": "“INDOLIN-2-ONE OR PYRROLO -PYRIDIN -2 -ONE DERIVATIVES” (Hoffmann-La Roche Inc., priority 2014, published 2023)", "data": [{"molecular_target": "T1, mouse ENT-1 transporter (Mus musculus, UniProt Q9JIM1)", "T1 construct": "expressed in transfected cells", "T1 sequence (Q9JIM1 1-460)": "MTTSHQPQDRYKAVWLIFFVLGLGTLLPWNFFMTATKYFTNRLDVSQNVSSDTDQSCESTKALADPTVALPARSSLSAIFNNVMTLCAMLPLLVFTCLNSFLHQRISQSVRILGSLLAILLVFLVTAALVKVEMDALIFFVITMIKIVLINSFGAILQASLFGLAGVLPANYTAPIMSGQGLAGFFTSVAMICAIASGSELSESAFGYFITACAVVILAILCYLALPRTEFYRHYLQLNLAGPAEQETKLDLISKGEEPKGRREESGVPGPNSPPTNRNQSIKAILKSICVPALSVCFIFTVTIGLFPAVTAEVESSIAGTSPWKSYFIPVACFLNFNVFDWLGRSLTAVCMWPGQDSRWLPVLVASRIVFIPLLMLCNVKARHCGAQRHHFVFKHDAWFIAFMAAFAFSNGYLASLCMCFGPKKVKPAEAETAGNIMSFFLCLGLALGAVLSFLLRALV", "experiment": "Measure of adenosine transport activity (ENT1 adenosine uptake inhibition)", "type": "cell-based", "details": "stable cells expressing mouse ENT-1, [2,8-3H]-adenosine 6 nM, 20 min", "procedure": "To measure adenosine transport activity of ENT-1 mammalian cells, stable cells expressing the mouse ENT-1 transporter were plated on day 1 in 96-well culture plates at the density of 60,000 cells/well, in complete DMEM/F12 medium supplemented with glutamax, 10% FBS and 10 μg/ml puromycin. On day 2, the medium was aspirated and the cells were washed twice with uptake buffer (10 mM Hepes-Tris, pH 7.4 containing 150 mM NaCl, 1 mM CaCl2), 2.5 mM KCl, 2.5 mM MgSO4, 10 mM D-glucose) (UB). For inhibition experiments, cells were then incubated at RT with various concentrations of compounds with 1% DMSO final. Non-specific uptake was defined in the presence of 10 μM S-(4-Nitrobenzyl)-6-thioinosine (NBTI, Sigma Cat #N2255).\nThe plates were then incubated for 20 min with gentle shaking and the reaction was stopped by aspiration of the mixture and washing (three times) with ice-cold UB. The cells were lysed by the addition of scintillation liquid, shaken 3 hours and the radioactivity in the cells was estimated using a microplates scintillation counter (TopCount NXT, Packard).", "units": {"IC50": "µM"}, "values": [{"molecule": "1-(2-cyclopropylpyrimidin-5-yl)-3,3-dimethyl-6-(2-methylpyrimidin-5-yl)indolin-2-one [Example 116]", "IC50": 0.23}, {"molecule": "Cc1cccc(-c2ccc3c(c2)N(c2cncc(C)n2)C(=O)C3(C)C)n1", "note": "[Example 135, 3,3-dimethyl-1-(6-methylpyrazin-2-yl)-6-(6-methyl-2-pyridyl)indolin-2-one]", "IC50": 2.28}, {"molecule": "Cc1cnc(-c2ccc3c(c2)N(c2ccc(C)nn2)C(=O)C3(C)C)cn1", "note": "[Example 137, 3,3-dimethyl-6-(5-methylpyrazin-2-yl)-1-(6-methylpyridazin-3-yl)indolin-2-one]", "IC50": 4.07}, {"molecule": "Cc1cnc(-c2ccc3c(c2)N(c2ccn(C)n2)C(=O)C3(C)C)cn1", "note": "[Example 138, 3,3-dimethyl-1-(1-methyl-1H-pyrazol-3-yl)-6-(5-methylpyrazin-2-yl)indolin-2-one]", "IC50": 5.79}, {"molecule": "Cc1ncc(-c2ccc3c(c2)N(c2cncc(F)c2)C(=O)C3(C)C)cn1", "note": "[Example 142, 1-(5-fluoropyridin-3-yl)-3,3-dimethyl-6-(2-methylpyrimidin-5-yl)indolin-2-one]", "IC50": 0.765}, {"molecule": "Cc1ncc(-c2ccc3c(c2)N(c2cncc(C#N)c2)C(=O)C3(C)C)cn1", "note": "[Example 143, 5-(3,3-dimethyl-6-(2-methylpyrimidin-5-yl)-2-oxoindolin-1-yl)nicotinonitrile]", "IC50": 0.07}, {"molecule": "Cc1cc(-c2ccc3c(c2)N(c2cncc(C)n2)C(=O)C3(C)C)ccn1", "note": "[Example 144, 3,3-dimethyl-1-(6-methylpyrazin-2-yl)-6-(2-methyl-4-pyridyl)indolin-2-one]", "IC50": 3.51}, {"molecule": "Cc1cncc(-c2ccc3c(c2)N(c2cncc(C)n2)C(=O)C3(C)C)c1", "note": "[Example 145, 3,3-dimethyl-1-(6-methylpyrazin-2-yl)-6-(5-methyl-3-pyridyl)indolin-2-one]", "IC50": 0.337}, {"molecule": "Cc1cncc(N2C(=O)C(C)(C)c3ccc(-c4cncc(F)c4)cc32)n1", "note": "[Example 146, 6-(5-fluoro-3-pyridyl)-3,3-dimethyl-1-(6-methylpyrazin-2-yl)indolin-2-one]", "IC50": 2.13}, {"molecule": "Cc1cnc(N2C(=O)C(C)(C)c3ccc(-c4ccnc(C)c4)cc32)cn1", "note": "[Example 147, 3,3-dimethyl-1-(5-methylpyrazin-2-yl)-6-(2-methyl-4-pyridyl)indolin-2-one]", "IC50": 9}, {"molecule": "Cc1ccc(-c2ccc3c(c2)N(c2cnc(C)cn2)C(=O)C3(C)C)cn1", "note": "[Example 148, 3,3-dimethyl-1-(5-methylpyrazin-2-yl)-6-(6-methyl-3-pyridyl)indolin-2-one]", "IC50": 0.402}, {"molecule": "Cc1cncc(-c2ccc3c(c2)N(c2cnc(C)cn2)C(=O)C3(C)C)c1", "note": "[Example 149, 3,3-dimethyl-1-(5-methylpyrazin-2-yl)-6-(5-methyl-3-pyridyl)indolin-2-one]", "IC50": 0.207}, {"molecule": "Cc1cnc(N2C(=O)C(C)(C)c3ccc(-c4cncc(F)c4)cc32)cn1", "note": "[Example 150, 6-(5-fluoro-3-pyridyl)-3,3-dimethyl-1-(5-methylpyrazin-2-yl)indolin-2-one]", "IC50": 1.48}, {"molecule": "Cc1cnc(N2C(=O)C(C)(C)c3ccc(-c4cnc(C)c(F)c4)cc32)cn1", "note": "[Example 151, 6-(5-fluoro-6-methyl-3-pyridyl)-3,3-dimethyl-1-(5-methylpyrazin-2-yl)indolin-2-one]", "IC50": 0.037}, {"molecule": "Cc1ncc(-c2ccc3c(c2)N(c2cncc(C(F)(F)F)c2)C(=O)C3(C)C)cn1", "note": "[Example 152, 3,3-dimethyl-6-(2-methylpyrimidin-5-yl)-1-(5-(trifluoromethyl)pyridin-3-yl)indolin-2-one]", "IC50": 0.317}, {"molecule": "Cc1ncc(-c2ccc3c(c2)N(c2cncc(CO)c2)C(=O)C3(C)C)cn1", "note": "[Example 153, 1-(5-(hydroxymethyl)pyridin-3-yl)-3,3-dimethyl-6-(2-methylpyrimidin-5-yl)indolin-2-one]", "IC50": 0.291}, {"molecule": "Cc1cncc(N2C(=O)C(C)(C)c3ccc(-c4ccnc(C)n4)cc32)n1", "note": "[Example 154, 3,3-dimethyl-1-(6-methylpyrazin-2-yl)-6-(2-methylpyrimidin-4-yl)indolin-2-one]", "IC50": 4.47}, {"molecule": "CCc1cncc(N2C(=O)C(C)(C)c3ccc(-c4cnc(C)nc4)cc32)c1", "note": "[Example 156, 1-(5-ethylpyridin-3-yl)-3,3-dimethyl-6-(2-methylpyrimidin-5-yl)indolin-2-one]", "IC50": 0.3}]}, {"test_system": "L-687,414-induced hyperlocomotion", "experiment": "L-687,414-induced hyperlocomotion", "type": "in vivo, mouse", "details": "Dose ip 30 mg/kg, mice, 50 mg/kg s.c. L-687,414", "procedure": "(§1) The described compounds of formula I reduce L-687,414-induced hyperlocomotion. This was assessed by using a computerized Digiscan 16 Animal Activity Monitoring System (Omnitech Electronics, Columbus, Ohio) to quantify locomotor activity. Animals were kept under a 12 h light/dark cycle and experiments were performed during the light period. Each activity monitoring chamber consisted of a Plexiglas box (41×41×28 cm; W×L×H) with sawdust bedding on the floor surrounded by invisible horizontal and vertical infrared sensor beams. The test boxes were divided by a Plexiglas cross providing each mouse with 20×20 cm of moving space. Cages were connected to a Digiscan Analyzer linked to a computer that constantly collected the beam status information. Records of photocell beam interruptions for individual animals were taken every 5 min over the duration of the experimental session and the sum of the first 6 periods was used as the final parameter. At least 8 mice were used in each treatment group. Compounds were administered either p.o. 15 min before a s.c. injection of 50 mg/kg of L-687,414, or i.p. at the same time as a s.c. injection of 50 mg/kg of L-687,414. Mice were then transferred from their home cage to the recording chambers for a 15-min habituation phase allowing free exploration of the new environment. Horizontal activity was then recorded for a 30-min time period. The % inhibition of L-687,414-induced hyperlocomotion was calculated according to the equation:\n(§2) ((Veh+L-687,414 horizontal activity−drug+L-687,414 horizontal activity)/Veh+L-687,414 horizontal activity)×100\n(§3) ID50 values, defined as doses of each compound producing 50% inhibition of L-687,414-induced hyperlocomotion, were calculated by linear regression analysis of a dose-response data using an Excel-based computer-fitting program.\n(§4) As data was not presupposed to be normally distributed, groups treated with test compounds were statistically compared with the control (vehicle-treated) group using one-tailed Mann Whitney U tests. In statistics, the Mann-Whitney U test (also called the Mann-Whitney-Wilcoxon (MWW) or Wilcoxon rank-sum test) is a non-parametric statistical hypothesis test for assessing whether one of two samples of independent observations tends to have larger values than the other. It is one of the most well-known non-parametric significance tests. […] P values given in table 1 are one-tailed since only decreases in locomotion were expected and tested for (Mann, H. B., Whitney, D. R. (1947), “On a Test of Whether one of Two Random Variables is Stochastically Larger than the Other”, Annals of Mathematical Statistics, 18 (1), 50-60).", "units": {"L-687,414-induced hyperlocomotion Inhibition, ip [%]": "%"}, "values": [{"molecule": "1-(2-cyclopropylpyrimidin-5-yl)-3,3-dimethyl-6-(2-methylpyrimidin-5-yl)indolin-2-one [Example 116]", "L-687,414-induced hyperlocomotion Inhibition, ip [%]": 92.8}]}, {"test_system": "L-687,414-induced hyperlocomotion", "experiment": "L-687,414-induced hyperlocomotion", "type": "in vivo, mouse", "details": "Mus musculus; Dose ip 30 mg/kg, mice, 50 mg/kg s.c. L-687,414", "procedure": "as §1, §2, §3, §4", "units": {"inhibition in vivo at 30 mg/kg": "%"}, "values": [{"molecule": "Cc1ncc(-c2cc3c(cn2)C(C)(C)C(=O)N3c2ccn(C)n2)cn1", "note": "[Example 16, 3,3-Dimethyl-1-(1-methyl-1H-pyrazol-3-yl)-6-(2-methylpyrimidin-5-yl)-1H-pyrrolo[3,2-c]pyridin-2(3H)-one]", "inhibition in vivo at 30 mg/kg": 78.3}, {"molecule": "Cc1cc(N2C(=O)C(C)(C)c3ccc(-n4cnc(C)c4)cc32)ccn1", "note": "[Example 22, 3,3-Dimethyl-6-(4-methylimidazol-1-yl)-1-(2-methyl-4-pyridyl)indolin-2-one]", "inhibition in vivo at 30 mg/kg": 63.8}, {"molecule": "Cc1ccc(N2C(=O)C(C)(C)c3ccc(-c4nnc(C)o4)cc32)cn1", "note": "[Example 34, 3,3-Dimethyl-6-(5-methyl-1,3,4-oxadiazol-2-yl)-1-(6-methyl-3-pyridyl)indolin-2-one]", "inhibition in vivo at 30 mg/kg": 59.7}, {"molecule": "Cc1ncc(-c2ccc3c(c2)N(c2ccn(C)n2)C(=O)C3(C)C)o1", "note": "[Example 49, 3,3-Dimethyl-6-(2-methyloxazol-5-yl)-1-(1-methylpyrazol-3-yl)indolin-2-one]", "inhibition in vivo at 30 mg/kg": 47.1}, {"molecule": "Cc1ncc(-c2ccc3c(c2)N(c2nc(C)n(C)n2)C(=O)C3(C)C)cn1", "note": "[Example 78, 1-(1,5-dimethyl-1H-1,2,4-triazol-3-yl)-3,3-dimethyl-6-(2-methylpyrimidin-5-yl)indolin-2-one]", "inhibition in vivo at 30 mg/kg": 89.9}, {"molecule": "Cc1ncc(-c2ccc3c(c2)N(c2ncn(C)n2)C(=O)C3(C)C)cn1", "note": "[Example 82, 3,3-dimethyl-1-(1-methyl-1H-1,2,4-triazol-3-yl)-6-(2-methylpyrimidin-5-yl)indolin-2-one]", "inhibition in vivo at 30 mg/kg": 89.6}, {"molecule": "Cc1ncc(-c2ccc3c(c2)N(c2ccncn2)C(=O)C3(C)C)cn1", "note": "[Example 93, 3,3-dimethyl-6-(2-methylpyrimidin-5-yl)-1-(pyrimidin-4-yl)indolin-2-one]", "inhibition in vivo at 30 mg/kg": 92.4}, {"molecule": "Cc1cc(-c2cc3c(cn2)C(C)(C)C(=O)N3c2ccc(C)nn2)ccn1", "note": "[Example 109, 3,3-dimethyl-1-(6-methylpyridazin-3-yl)-6-(2-methylpyridin-4-yl)-1H-pyrrolo[3,2-c]pyridin-2(3H)-one]", "inhibition in vivo at 30 mg/kg": 51.3}, {"molecule": "Cc1cc(-c2cc3c(cn2)C(C)(C)C(=O)N3c2cnn(C)c2)ccn1", "note": "[Example 110, 3,3-dimethyl-1-(1-methyl-1H-pyrazol-4-yl)-6-(2-methylpyridin-4-yl)-1H-pyrrolo[3,2-c]pyridin-2(3H)-one]", "inhibition in vivo at 30 mg/kg": 58.5}, {"molecule": "Cc1cc(-c2cc3c(cn2)C(C)(C)C(=O)N3c2cn(C)cn2)ccn1", "note": "[Example 111, 3,3-dimethyl-1-(1-methyl-1H-imidazol-4-yl)-6-(2-methylpyridin-4-yl)-1H-pyrrolo[3,2-c]pyridin-2(3H)-one]", "inhibition in vivo at 30 mg/kg": 51}]}]}
